Measured values published in patent EP4215522A1, “DERIVATIVES OF 4-CHROMONE AS INHIBITORS OF THE RDRP POLYMERASE OF SARS-COV-2 VIRUS AND METHOD FOR THE PREPARATION THEREOF” (priority 2022, dated 2023).
Where two headings read alike, the source gives them in different places.

Legend:
[1] = molecular target: RNA-dependent RNA polymerase (SARS-CoV-2) (Severe acute respiratory syndrome coronavirus 2, UniProt P0DTD1); assay: in vitro enzymatic assay of RdRp activity (AlphaScreen detection); assay type: biochemical
[2] = Kinetic solubility; assay type: physicochemical
Procedure: (§1) The solubility and stability of some compounds of the invention and known compounds were evaluated.

[3] = Plasma stability in mice; assay type: in vitro ADME; conditions: mouse plasma
Procedure: as §1

[4] = Microsomal stability in mice; assay type: in vitro ADME; conditions: mouse microsomes
Procedure: as §1

[5] = RdRp reaction 37°C, 60 minutes, duplicate, 30 minutes preincubation, 1% DMSO
[6] = compound at 25 µM, read-out: % inhib. (25 µM)
[7] = compound at 100 µM, read-out: % inhib. (100 µM)

Row | SMILES | IC50 [1, 5] [µM] | inhibition at 25 µM [1, 6] [%] | inhibition at 100 µM [1, 7] [%] | Kinetic solubility Sk [2] [µM] | Plasma stability in mice t1/2 [3] [h] | Microsomal stability in mice t1/2 [4] [h] | IC50 (µM) [1, 5] | inhibition at 25 µM ([1]; read-out: % inhibition 25 µM) [%] | inhibition at 100 µM ([1]; read-out: % inhibition 100 µM) [%]
1 | O=C(OCCc1ccc(O)c(O)c1)c1cc(=O)c2c(O)cccc2o1 [(24c), 3,4-dihydroxyphenethyl-5-hydroxy-4-oxo-4H-chromen-2-carboxylate] | 44.1 ± 1.1 | 36 | 72 |  |  |  |  |  | 
2 | CC(c1ccc(O)c(O)c1)c1cc(=O)c2c(O)cccc2o1 (stereo not shown) [(13b), 2-(1-(3,4-dihydroxyphenyl)ethyl)-5-hydroxy-4H-chromen-4-one] | 4.1 ± 1.4 | 65 | 100 | 165 | >2 | >1 |  |  | 
3 | O=c1c(OCCCO)c(-c2ccc(O)c(O)c2)oc2cc(O)cc(O)c12 [(9c), 2-(3,4-dihydroxyphenyl)-5,7-dihydroxy-3-(3-hydroxypropoxy)-4H-chromen-4-one] | 5.6 ± 0.1 | 71 | 95 | 231 | 1.5 | 1 |  |  | 
4 | CCCCOc1c(-c2ccc(O)c(O)c2)oc2cc(O)cc(O)c2c1=O [(9a), 3-butoxy-2-(3,4-dihydroxyphenyl)-5,7-dihydroxy-4H-chromen-4-one] | 5.3 ± 1 | 52 | 98 | 156 | >2 | >1 |  |  | 
5 | O=C(NCCNC(=O)c1cc(=O)c2c(O)cccc2o1)c1ccc(O)c(O)c1 [(28), N-(2-(3,4-dihydroxybenzamide)ethyl)-5-hydroxy-4-oxo-4H-chromen-2-carboxamide] | 15.9 ± 1.1 | 79 | 100 |  |  |  |  |  | 
6 | O=c1cc(C(CCCC(F)(F)F)c2ccc(O)c(O)c2)oc2cccc(O)c12 (stereo not shown) [(13d), 2-(1-(3,4-dihydroxyphenyl)-5,5,5-trifluoropentyl)-5-hydroxy-4H-chromen-4-one] |  | 8 | 10 |  |  |  | NO inhibition |  | 
7 | O=C(Nc1ccc(O)c(O)c1)c1cc(=O)c2c(O)cccc2o1 [(24a), N-(3,4-dihydroxyphenyl)-5-hydroxy-4-oxo-4H-chromen-2-carboxamide] | 7.1 ± 0.8 | 80 | 100 | 65 | 1.38 ± 0.217 | 1 |  |  | 
8 | CCCCC(c1ccc(O)c(O)c1)c1cc(=O)c2c(O)cccc2o1 (stereo not shown) [(13c), 2-(1-(3,4-dihydroxyphenyl)pentyl)-5-hydroxy-4H-chromen-4-one] |  | 16 | 37 |  |  |  |  |  | 
9 | O=c1cc(-c2ccc(O)c(O)c2)oc2cc(F)cc(O)c12 [reference compound] |  |  |  |  |  |  |  | 0 | 25
10 | CCCc1c(-c2ccc(O)c(O)c2)oc2cc(O)cc(O)c2c1=O [(5b), 2-(3,4-dihydroxyphenyl)-5,7-dihydroxy-3-propyl-4H-chromen-4-one] | 8.8 ± 0.7 | 72 | 98 | 13 |  |  |  |  | 
11 | COc1cccc2oc(-c3ccc(O)cc3C)cc(=O)c12 [reference compound] |  |  |  |  |  |  |  | 3 | 34
12 | O=c1c(O)c(-c2ccc(O)c(O)c2)oc2cc(O)cc(O)c12 [quercetin, reference compound] |  |  |  | 16 | 0.12 | >1 |  |  | 
13 | Cc1c(-c2ccc(O)c(O)c2)oc2cc(O)cc(O)c2c1=O [(5a), 2-(3,4-dihydroxyphenyl)-5,7-dihydroxy-3-methyl-4H-chromen-4-one] | 4.3 ± 1.1 | 94 | 99 | 32 |  |  |  |  | 
14 | O=c1cc(-c2ccc3c(c2)OC(F)(F)O3)oc2cc(O)cc(O)c12 [reference compound] |  |  |  |  |  |  |  | 0 | 51
15 | O=C(NCCNC(=S)Nc1ccc(O)c(O)c1)c1cc(=O)c2c(O)cccc2o1 [(31), N-(2-(3-(3,4-dihydroxyphenyl)thiourea)ethyl)-5-hydroxy-4-oxo-4H-chromen-2-carboxamide] | 3.4 ± 1.2 | 86 | 94 | <1 |  |  |  |  | 
16 | O=c1cc(-c2ccc(O)c(O)c2)oc2cc(O)cc(O)c12 [luteolin, reference compound] |  |  |  | 21 | >2 | >1 |  |  | 
17 | O=c1cc(Cc2ccc(O)c(O)c2)oc2cccc(O)c12 [(13a), 2-(3,4-dihydroxybenzyl)-5-hydroxy-4H-chromen-4-one] | 8.5 ± 0.7 | 78 | 99 | 63 | >2 | >1 |  |  | 
18 | O=C(Oc1ccc(O)c(O)c1)c1cc(=O)c2c(O)cccc2o1 [(24b), 3,4-dihydroxyphenyl-5-hydroxy-4-oxo-4H-chromen-2-carboxylate] | 2 ± 1 | 95 | 94 | <1 |  |  |  |  | 
19 | O=c1c(OCCO)c(-c2ccc(O)c(O)c2)oc2cc(O)cc(O)c12 [(9b), 2-(3,4-dihydroxyphenyl)-5,7-dihydroxy-3-(2-hydroxyethoxy)-4H-chromen-4-one] | 6.1 ± 1 | 83 | 100 | 167 | >2 | >1 |  |  | 
20 | O=c1cc(CCc2ccc(O)c(O)c2)oc2cccc(O)c12 [(20), 2-(3,4-dihydroxyphenethyl)-5-hydroxy-4H-chromen-4-one] | 5.8 ± 0.7 | 80 | 97 | 67 | >2 | >1 |  |  | 
21 | O=c1cc(/C=C/c2ccc(O)c(O)c2)oc2cccc(O)c12 [(18), (E)-2-(3,4-dihydroxystyryl)-5-hydroxy-4H-chromen-4-one] | 7 ± 1.2 | 54 | 94 | <1 |  |  |  |  | 
